According to ChEMBL document CHEMBL1201862, “PubChem BioAssay data set” (2004):
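Test compounds were applied to cells in 96-well plates for 48 hours at 5 doses. The concentration for 50% growth inhibition is given as GI50.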 Activity calls are given as the source filed them. Rule as the data show it: active = GI50 up to about 1.1 µM and inactive = higher.

Columns and labels:
Test in all cases: DTP human tumour cell line panel, 48 h
LXFL 529 = system: LXFL 529
M19-MEL = system: M19-MEL
HOP-18 = system: HOP-18
KM-20L2 = system: KM-20L2
SNB-78 = system: SNB-78
DMS-273 = system: DMS-273
DLD-1 = system: DLD-1
XF498 = system: XF498
RXF 631 = system: RXF 631

Measured: GI50

Cc1ccc(/C=N/NS(=O)(=O)c2ccccc2)c(C)c1
inactive: LXFL 529 > 100 µM | M19-MEL > 100 µM | HOP-18 > 100 µM | KM-20L2 > 100 µM | SNB-78 > 100 µM | DMS-273 > 100 µM | DLD-1 > 100 µM | XF498 > 100 µM | RXF 631 > 100 µM

Cc1ccc(NC(=O)CCc2nnc3s/c(=C\C=C\c4ccccc4)c(=O)n23)cc1
inactive: LXFL 529 60.7 µM | M19-MEL 67.5 µM | HOP-18 90.2 µM | KM-20L2 > 100 µM | SNB-78 > 71 µM | DMS-273 > 100 µM | DLD-1 > 100 µM | XF498 > 100 µM | RXF 631 > 82.4 µM

COc1cc(CC(C)N)ccc1O (stereo unspecified)
inactive: LXFL 529 > 100 µM | HOP-18 > 100 µM | KM-20L2 > 100 µM | SNB-78 > 100 µM | DMS-273 > 100 µM | DLD-1 > 100 µM | XF498 > 100 µM | RXF 631 > 100 µM
